What was measured:
Experiment in all cases: relative viability (nuclei count vs DMSO), 5 days (fraction); higher = more cells survive
Elesclomol + Lapatinib = compound: CN(NC(=O)CC(=O)NN(C)C(=S)c1ccccc1)C(=S)c1ccccc1 [Elesclomol] + CS(=O)(=O)CCNCc1ccc(-c2ccc3ncnc(Nc4ccc(OCc5cccc(F)c5)c(Cl)c4)c3c2)o1 [Lapatinib] (partner 2 µM)
In short: (§1)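 Nuclei were stained with Hoechst during a one-step fixation (final 0.05% Triton X-100, 1% formaldehyde, 1 ug/ml Hoechst) carried out 5 days after dosing, then counted on 4× images. The cells, lung cancer lines in 1536-well plates, had been dosed by pin tool the day after seeding with one drug alone or a fixed anchor-drug dose plus five library-drug doses (not always all listed) in √10 steps. Relative viability is the nuclei count in treated wells divided by that in vehicle wells, and each value is the median of duplicate plates.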

Elesclomol + Alpelisib = compound: CN(NC(=O)CC(=O)NN(C)C(=S)c1ccccc1)C(=S)c1ccccc1 [Elesclomol] + Cc1nc(NC(=O)N2CCC[C@H]2C(N)=O)sc1-c1ccnc(C(C)(C)C(F)(F)F)c1 [Alpelisib] (partner 2 µM)
In short: as §1

Elesclomol + Dasatinib = compound: CN(NC(=O)CC(=O)NN(C)C(=S)c1ccccc1)C(=S)c1ccccc1 [Elesclomol] + Cc1nc(Nc2ncc(C(=O)Nc3c(C)cccc3Cl)s2)cc(N2CCN(CCO)CC2)n1 [Dasatinib] (partner 0.075 µM)
In short: as §1

Elesclomol + Phenformin = compound: CN(NC(=O)CC(=O)NN(C)C(=S)c1ccccc1)C(=S)c1ccccc1 [Elesclomol] + N=C(N)NC(=N)NCCc1ccccc1 [Phenformin] (partner 250 µM)
In short: as §1

Elesclomol + AZD7762 = compound: CN(NC(=O)CC(=O)NN(C)C(=S)c1ccccc1)C(=S)c1ccccc1 [Elesclomol] + NC(=O)Nc1cc(-c2cccc(F)c2)sc1C(=O)N[C@H]1CCCNC1 [AZD7762] (partner 0.2 µM)
In short: as §1

Cell Line | relative viability (Elesclomol + Lapatinib; first compound 0.003162 µM) | relative viability (Elesclomol + Lapatinib; first compound 0.01 µM) | relative viability (Elesclomol + Lapatinib; first compound 0.03162 µM) | relative viability (Elesclomol + Lapatinib; first compound 0.1 µM) | relative viability (Elesclomol + Alpelisib; first compound 0.003162 µM) | relative viability (Elesclomol + Alpelisib; first compound 0.01 µM) | relative viability (Elesclomol + Alpelisib; first compound 0.03162 µM) | relative viability (Elesclomol + Alpelisib; first compound 0.1 µM) | relative viability (Elesclomol + Dasatinib; first compound 0.003162 µM) | relative viability (Elesclomol + Dasatinib; first compound 0.01 µM) | relative viability (Elesclomol + Dasatinib; first compound 0.03162 µM) | relative viability (Elesclomol + Dasatinib; first compound 0.1 µM) | relative viability (Elesclomol + Phenformin; first compound 0.003162 µM) | relative viability (Elesclomol + Phenformin; first compound 0.01 µM) | relative viability (Elesclomol + Phenformin; first compound 0.03162 µM) | relative viability (Elesclomol + Phenformin; first compound 0.1 µM) | relative viability (Elesclomol + AZD7762; first compound 0.003162 µM) | relative viability (Elesclomol + AZD7762; first compound 0.01 µM) | relative viability (Elesclomol + AZD7762; first compound 0.03162 µM) | relative viability (Elesclomol + AZD7762; first compound 0.1 µM)
NCI-H838 | 0.984 | 0.838 | 0.683 | 0.555 | 1.13 | 0.892 | 0.967 | 0.706 | 0.287 | 0.296 | 0.224 | 0.177 | 0.536 | 0.508 | 0.455 | 0.152 | 0.989 | 0.87 | 0.735 | 0.613
NCI-H1355 | 1.05 | 0.786 | 0.657 | 0.222 | 0.832 | 0.636 | 0.466 | 0.16 | 0.736 | 0.639 | 0.396 | 0.178 | 0.464 | 0.409 | 0.391 | 0.312 | 0.793 | 0.7 | 0.478 | 0.179
NCI-H1395 | 1.01 | 0.368 | 0.289 | 0.304 | 0.999 | 0.571 | 0.252 | 0.259 | 0.387 | 0.304 | 0.266 | 0.22 | 0.45 | 0.364 | 0.296 | 0.27 | 0.438 | 0.431 | 0.226 | 0.202
NCI-H1437 | 0.637 | 0.45 | 0.346 | 0.265 | 0.886 | 0.61 | 0.341 | 0.283 | 0.246 | 0.18 | 0.116 | 0.128 | 0.292 | 0.252 | 0.246 | 0.217 | 0.938 | 0.644 | 0.547 | 0.594

From the supplement of paper PMC10307832
